In ChEMBL document CHEMBL2413072, “Synthesis and in vitro anticancer studies of novel C-2 arylidene congeners of lantadenes” (2013):
Active and inactive are the calls of the source. The rule behind the calls is not given here.

Legend:
Format in all cases: functional
MOLT-4 = test: Growth inhibition of human MOLT4 cells assessed as cell growth at 10 uM by sulforhodamine B assay; conditions: read-out: Activity
SF-539 = test: Growth inhibition of human SF539 cells assessed as cell growth at 10 uM by sulforhodamine B assay; conditions: read-out: Activity
NCI-H460 [1] = test: Growth inhibition of human NCI-H460 cells assessed as cell growth at 10 uM by sulforhodamine B assay; conditions: read-out: Activity
MDA-MB-231 = test: Growth inhibition of human MDA-MB-231 cells assessed as cell growth at 10 uM by sulforhodamine B assay; conditions: read-out: Activity
RPMI-8226 [2] = test: Growth inhibition of human RPMI8226 cells assessed as growth inhibition at 10 uM by sulforhodamine B assay; conditions: read-out: GI
RXF 393 [3] = test: Growth inhibition of human RXF393 cells assessed as growth inhibition at 10 uM by sulforhodamine B assay; conditions: read-out: GI
SK-MEL-5 [4] = test: Growth inhibition of human SK-MEL-5 cells assessed as cell growth at 10 uM by sulforhodamine B assay; conditions: read-out: Activity
ACHN = test: Growth inhibition of human ACHN cells assessed as cell growth at 10 uM by sulforhodamine B assay; conditions: read-out: Activity
[5] = Growth inhibition of human Hs 578T cells assessed as growth inhibition at 10 uM by sulforhodamine B assay; conditions: read-out: GI
UO-31 = test: Growth inhibition of human UO31 cells assessed as cell growth at 10 uM by sulforhodamine B assay; conditions: read-out: Activity
M14 [6] = test: Growth inhibition of human M14 cells assessed as growth inhibition at 10 uM by sulforhodamine B assay; conditions: read-out: GI
T47D = test: Growth inhibition of human T47D cells assessed as growth inhibition at 10 uM by sulforhodamine B assay; conditions: read-out: GI
SW-620 = test: Growth inhibition of human SW620 cells assessed as growth inhibition at 10 uM by sulforhodamine B assay; conditions: read-out: GI
NCI-H322M = test: Growth inhibition of human NCI-H322M cells assessed as growth inhibition at 10 uM by sulforhodamine B assay; conditions: read-out: GI
M14 [7] = test: Growth inhibition of human M14 cells assessed as cell growth at 10 uM by sulforhodamine B assay; conditions: read-out: Activity
CCRF-CEM = test: Growth inhibition of human CCRF-CEM cells assessed as growth inhibition at 10 uM by sulforhodamine B assay; conditions: read-out: GI
SF-268 = test: Growth inhibition of human SF268 cells assessed as cell growth at 10 uM by sulforhodamine B assay; conditions: read-out: Activity
Malme-3M [8] = test: Growth inhibition of human MALME-3M cells assessed as cell growth at 10 uM by sulforhodamine B assay; conditions: read-out: Activity
SK-MEL-5 [9] = test: Growth inhibition of human SK-MEL-5 cells assessed as growth inhibition at 10 uM by sulforhodamine B assay; conditions: read-out: GI
HCT-116 = test: Growth inhibition of human HCT116 cells assessed as cell growth at 10 uM by sulforhodamine B assay; conditions: read-out: Activity
RXF 393 [10] = test: Growth inhibition of human RXF393 cells assessed as cell growth at 10 uM by sulforhodamine B assay; conditions: read-out: Activity
SF-295 = test: Growth inhibition of human SF295 cells assessed as cell growth at 10 uM by sulforhodamine B assay; conditions: read-out: Activity
OVCAR-3 = test: Growth inhibition of human OVCAR3 cells assessed as growth inhibition at 10 uM by sulforhodamine B assay; conditions: read-out: GI
K562 = test: Growth inhibition of human K562 cells assessed as cell growth at 10 uM by sulforhodamine B assay; conditions: read-out: Activity
HOP-92 = test: Growth inhibition of human HOP92 cells assessed as cell growth at 10 uM by sulforhodamine B assay; conditions: read-out: Activity
SNB-75 [11] = test: Growth inhibition of human SNB75 cells assessed as growth inhibition at 10 uM by sulforhodamine B assay; conditions: read-out: GI
HL-60(TB) = test: Growth inhibition of human HL-60(TB) cells assessed as growth inhibition at 10 uM by sulforhodamine B assay
[12] = Growth inhibition of human EKVX cells assessed as cell growth at 10 uM by sulforhodamine B assay; conditions: read-out: Activity
MDA-MB-435 = test: Growth inhibition of human MDA-MB-435 cells assessed as cell growth at 10 uM by sulforhodamine B assay; conditions: read-out: Activity
[13] = Growth inhibition of human NCI-ADR-RES cells assessed as cell growth at 10 uM by sulforhodamine B assay; conditions: read-out: Activity
HCT-15 = test: Growth inhibition of human HCT15 cells assessed as growth inhibition at 10 uM by sulforhodamine B assay; conditions: read-out: GI
SNB-75 [14] = test: Growth inhibition of human SNB75 cells assessed as cell growth at 10 uM by sulforhodamine B assay; conditions: read-out: Activity
COLO 205 = test: Growth inhibition of human COLO205 cells assessed as growth inhibition at 10 uM by sulforhodamine B assay; conditions: read-out: GI
SK-MEL-2 = test: Growth inhibition of human SK-MEL-2 cells assessed as growth inhibition at 10 uM by sulforhodamine B assay; conditions: read-out: GI
LOX IMVI [15] = test: Growth inhibition of human LOXIMVI cells assessed as cell growth at 10 uM by sulforhodamine B assay; conditions: read-out: Activity
A498 = test: Growth inhibition of human A498 cells assessed as cell growth at 10 uM by sulforhodamine B assay; conditions: read-out: Activity
NCI-H460 [16] = test: Growth inhibition of human NCI-H460 cells assessed as growth inhibition at 10 uM by sulforhodamine B assay; conditions: read-out: GI
SR = test: Growth inhibition of human SR cells assessed as growth inhibition at 10 uM by sulforhodamine B assay; conditions: read-out: GI
[17] = Growth inhibition of human HCC2998 cells assessed as cell growth at 10 uM by sulforhodamine B assay; conditions: HCC 2998, read-out: Activity
Malme-3M [18] = test: Growth inhibition of human MALME-3M cells assessed as growth inhibition at 10 uM by sulforhodamine B assay; conditions: read-out: GI
IGROV-1 = test: Growth inhibition of human IGROV1 cells assessed as cell growth at 10 uM by sulforhodamine B assay; conditions: read-out: Activity
OVCAR-4 = test: Growth inhibition of human OVCAR4 cells assessed as growth inhibition at 10 uM by sulforhodamine B assay; conditions: read-out: GI
TK-10 = test: Growth inhibition of human TK10 cells assessed as growth inhibition at 10 uM by sulforhodamine B assay; conditions: read-out: GI
LOX IMVI [19] = test: Growth inhibition of human LOXIMVI cells assessed as growth inhibition at 10 uM by sulforhodamine B assay; conditions: read-out: GI
HOP-62 = test: Growth inhibition of human HOP62 cells assessed as cell growth at 10 uM by sulforhodamine B assay; conditions: read-out: Activity
UACC-62 = test: Growth inhibition of human UACC62 cells assessed as cell growth at 10 uM by sulforhodamine B assay; conditions: read-out: Activity
OVCAR-5 = test: Growth inhibition of human OVCAR5 cells assessed as growth inhibition at 10 uM by sulforhodamine B assay; conditions: read-out: GI
PC-3 = test: Growth inhibition of human PC3 cells assessed as cell growth at 10 uM by sulforhodamine B assay; conditions: read-out: Activity
RPMI-8226 [20] = test: Growth inhibition of human RPMI8226 cells assessed as cell growth at 10 uM by sulforhodamine B assay; conditions: read-out: Activity

## C/C=C(/C)C(=O)O[C@@H]1CC(C)(C)C[C@H]2C3=CC[C@@H]4[C@@]5(C)CCC(=O)C(C)(C)[C@@H]5CC[C@@]4(C)[C@]3(C)CC[C@@]12C(=O)O [LANTADENE A]
MOLT-4
  growth at 10 µM: 43.3%
SF-539
  growth at 10 µM: 78.2%
NCI-H460 [1]
  growth at 10 µM: 51.5%
MDA-MB-231
  growth at 10 µM: 75.7%
RPMI-8226 [2]
  inhibition of growth at 10 µM: 83.3%
RXF 393 [3]
  inhibition of growth at 10 µM: 11.5%
SK-MEL-5 [4]
  growth at 10 µM: 38.7%
ACHN
  growth at 10 µM: 53.9%
[5]
  inhibition of growth at 10 µM: 21.2%
UO-31
  growth at 10 µM: 42.6%
M14 [6]
  inhibition of growth at 10 µM: 36.2%
T47D
  inhibition of growth at 10 µM: 36.1%
SW-620
  inhibition of growth at 10 µM: 31.3%
NCI-H322M
  inhibition of growth at 10 µM: 31.4%
M14 [7]
  growth at 10 µM: 63.8%
CCRF-CEM
  inhibition of growth at 10 µM: 56.4%
SF-268
  growth at 10 µM: 74.1%
Malme-3M [8]
  growth at 10 µM: 80.4%
SK-MEL-5 [9]
  inhibition of growth at 10 µM: 61.3%
HCT-116
  growth at 10 µM: 34%
RXF 393 [10]
  growth at 10 µM: 88.5%
SF-295
  growth at 10 µM: 27.6%
OVCAR-3
  inhibition of growth at 10 µM: 37.4%
K562
  growth at 10 µM: 44.1%
HOP-92
  growth at 10 µM: 43.7%
SNB-75 [11]
  inhibition of growth at 10 µM: 13.1%
HL-60(TB)
  growth inhibition (GI): Active
[12]
  growth at 10 µM: 49.3%
MDA-MB-435
  growth at 10 µM: 87.8%
[13]
  growth at 10 µM: 73.1%
HCT-15
  inhibition of growth at 10 µM: 69.8%
SNB-75 [14]
  growth at 10 µM: 86.9%
COLO 205
  inhibition of growth at 10 µM: 22%
SK-MEL-2
  inhibition of growth at 10 µM: 22.9%
LOX IMVI [15]
  growth at 10 µM: 61.8%
A498
  growth at 10 µM: 76.2%
NCI-H460 [16]
  inhibition of growth at 10 µM: 48.5%
SR
  inhibition of growth at 10 µM: 30.5%
[17]
  growth at 10 µM: 61.4%
Malme-3M [18]
  inhibition of growth at 10 µM: 19.6%
IGROV-1
  growth at 10 µM: 71.6%
OVCAR-4
  inhibition of growth at 10 µM: 23.1%
TK-10
  inhibition of growth at 10 µM: 16.7%
LOX IMVI [19]
  inhibition of growth at 10 µM: 38.2%
HOP-62
  growth at 10 µM: 75.6%
UACC-62
  growth at 10 µM: 49.9%
OVCAR-5
  inhibition of growth at 10 µM: < 10%
PC-3
  growth at 10 µM: 37.2%
RPMI-8226 [20]
  growth at 10 µM: 16.6%

## CC1(C)C[C@@H](O)[C@]2(C(=O)O)CC[C@]3(C)C(=CC[C@@H]4[C@@]5(C)CC[C@H](O)C(C)(C)[C@@H]5CC[C@]43C)[C@@H]2C1
MOLT-4
  growth at 10 µM: 78.3%
SF-539
  growth at 10 µM: 106%
NCI-H460 [1]
  growth at 10 µM: 101%
MDA-MB-231
  growth at 10 µM: 98.6%
RPMI-8226 [2]
  inhibition of growth at 10 µM: 10.7%
RXF 393 [3]
  inhibition of growth at 10 µM: < 10%
SK-MEL-5 [4]
  growth at 10 µM: 98.7%
ACHN
  growth at 10 µM: 102%
[5]
  inhibition of growth at 10 µM: < 10%
UO-31
  growth at 10 µM: 85.5%
M14 [6]
  inhibition of growth at 10 µM: < 10%
T47D
  inhibition of growth at 10 µM: < 10%
SW-620
  inhibition of growth at 10 µM: < 10%
NCI-H322M
  inhibition of growth at 10 µM: < 10%
M14 [7]
  growth at 10 µM: 93.6%
CCRF-CEM
  inhibition of growth at 10 µM: 11.6%
SF-268
  growth at 10 µM: 102%
Malme-3M [8]
  growth at 10 µM: 102%
SK-MEL-5 [9]
  inhibition of growth at 10 µM: < 10%
HCT-116
  growth at 10 µM: 82.7%
RXF 393 [10]
  growth at 10 µM: 112%
SF-295
  growth at 10 µM: 153%
OVCAR-3
  inhibition of growth at 10 µM: < 10%
K562
  growth at 10 µM: 94%
HOP-92
  growth at 10 µM: 103%
SNB-75 [11]
  inhibition of growth at 10 µM: < 10%
HL-60(TB); read-out: GI
  inhibition of growth at 10 µM: 18%
[12]
  growth at 10 µM: 104%
MDA-MB-435
  growth at 10 µM: 116%
[13]
  growth at 10 µM: 104%
HCT-15
  inhibition of growth at 10 µM: < 10%
SNB-75 [14]
  growth at 10 µM: 97.7%
COLO 205
  inhibition of growth at 10 µM: < 10%
SK-MEL-2
  inhibition of growth at 10 µM: < 10%
LOX IMVI [15]
  growth at 10 µM: 89%
A498
  growth at 10 µM: 102%
NCI-H460 [16]
  inhibition of growth at 10 µM: < 10%
SR
  inhibition of growth at 10 µM: 22%
[17]
  growth at 10 µM: 109%
Malme-3M [18]
  inhibition of growth at 10 µM: < 10%
IGROV-1
  growth at 10 µM: 97.6%
OVCAR-4
  inhibition of growth at 10 µM: < 10%
TK-10
  inhibition of growth at 10 µM: < 10%
LOX IMVI [19]
  inhibition of growth at 10 µM: 11.1%
HOP-62
  growth at 10 µM: 98.9%
UACC-62
  growth at 10 µM: 88.2%
OVCAR-5
  inhibition of growth at 10 µM: < 10%
PC-3
  growth at 10 µM: 76.5%
RPMI-8226 [20]
  growth at 10 µM: 89.3%
